Measured values from patent US20240270821A1, “GIP/GLP1/GCG TRI-RECEPTOR AGONISTS AND USES THEREOF” (priority 2023, published 2024).
Where two headings read alike, the source gives them in different places. Starred links: 1 amine or outer side, 2 acyl side, 3 side chain; linkers in the order of their positions; H or OH if unused. Non-standard residues stand in square brackets, D forms with d. Groups on a side chain read outwards from the residue. *: point of attachment. C20 diacid = O=C(O)CCCCCCCCCCCCCCCCCCC(=O)*; C18 diacid = O=C(O)CCCCCCCCCCCCCCCCC(=O)*; αMePhe(2-F) = C[C@](N)(Cc1ccccc1F)C(=O)O; γGlu = O=C(O)[C@H](CCC(=O)[*:2])N[*:1]; αMeY = C[C@](N)(Cc1ccc(O)cc1)C(=O)O; 4Pal = N[C@@H](Cc1ccncc1)C(=O)O; Aad = N[C@@H](CCCC(=O)O)C(=O)O; αMeL = CC(C)C[C@](C)(N)C(=O)O; αMeS = C[C@](N)(CO)C(=O)O; Orn = NCCC[C@H](N)C(=O)O; AEEA = NCCOCCOCC(=O)O; Aib = CC(C)(N)C(=O)O

Columns and labels:
Type in all cases: cell-based
hGIPR [1] = molecular target: T1, hGIPR (Homo sapiens, UniProt P48546); assay: Functional cAMP activity in the presence of 1% HSA; conditions: read-out: cAMP Rel EC50, hGIPR
T1 sequence (P48546 22-466): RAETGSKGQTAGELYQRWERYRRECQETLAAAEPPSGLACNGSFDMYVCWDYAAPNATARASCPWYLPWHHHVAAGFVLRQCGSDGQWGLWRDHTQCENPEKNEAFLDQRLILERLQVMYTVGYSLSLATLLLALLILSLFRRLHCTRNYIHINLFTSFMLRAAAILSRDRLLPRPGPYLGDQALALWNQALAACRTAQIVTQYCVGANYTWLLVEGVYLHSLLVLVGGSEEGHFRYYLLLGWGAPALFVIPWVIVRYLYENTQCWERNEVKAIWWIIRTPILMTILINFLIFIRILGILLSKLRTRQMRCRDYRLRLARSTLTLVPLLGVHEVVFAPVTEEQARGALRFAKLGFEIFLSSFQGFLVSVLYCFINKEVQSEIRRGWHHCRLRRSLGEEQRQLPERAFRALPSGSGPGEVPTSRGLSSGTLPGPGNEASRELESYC

hGLP-1R [2] = molecular target: T2, hGLP-1R (Homo sapiens, UniProt P43220); assay: Functional cAMP activity in the presence of 1% HSA; conditions: read-out: cAMP Rel EC50, hGLP-1R
T2 sequence (P43220 24-463): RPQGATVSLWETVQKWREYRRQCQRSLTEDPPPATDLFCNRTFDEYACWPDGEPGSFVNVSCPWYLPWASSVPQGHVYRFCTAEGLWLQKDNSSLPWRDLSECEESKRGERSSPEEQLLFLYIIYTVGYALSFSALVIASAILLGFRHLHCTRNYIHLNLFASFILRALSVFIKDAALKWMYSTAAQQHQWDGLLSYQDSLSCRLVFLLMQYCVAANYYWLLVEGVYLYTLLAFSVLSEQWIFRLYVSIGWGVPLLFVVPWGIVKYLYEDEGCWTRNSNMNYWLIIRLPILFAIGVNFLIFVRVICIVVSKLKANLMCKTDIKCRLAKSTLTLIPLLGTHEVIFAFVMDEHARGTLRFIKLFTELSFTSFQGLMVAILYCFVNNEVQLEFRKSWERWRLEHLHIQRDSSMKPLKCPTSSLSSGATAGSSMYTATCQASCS

human GcgR = human GcgR (Homo sapiens, UniProt P47871); assay: Functional cAMP activity in the presence of 1% HSA; conditions: read-out: cAMP Rel EC50, hGcgR
Chain of human GcgR (P47871 26-477): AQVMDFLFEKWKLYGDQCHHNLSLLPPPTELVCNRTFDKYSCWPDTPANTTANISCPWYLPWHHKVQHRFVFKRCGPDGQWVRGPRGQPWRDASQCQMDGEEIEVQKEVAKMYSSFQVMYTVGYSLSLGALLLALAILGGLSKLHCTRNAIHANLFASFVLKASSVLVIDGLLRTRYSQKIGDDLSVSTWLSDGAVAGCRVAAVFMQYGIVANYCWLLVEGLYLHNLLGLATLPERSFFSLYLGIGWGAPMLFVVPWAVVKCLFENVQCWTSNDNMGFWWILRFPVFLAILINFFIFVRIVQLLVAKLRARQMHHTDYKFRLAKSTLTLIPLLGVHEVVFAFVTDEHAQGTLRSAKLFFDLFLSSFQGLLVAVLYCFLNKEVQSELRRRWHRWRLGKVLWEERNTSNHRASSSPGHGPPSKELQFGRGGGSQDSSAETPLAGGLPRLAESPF

hGIPR [3] = molecular target: T1, hGIPR; assay: Functional cAMP activation in the presence of 0.1% casein (no HSA); conditions: read-out: Relative cAMP EC50, hGIPR;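 as to Relative cAMP EC50, hGIPR: intracellular cAMP rise after 30 min at 37 °C read by HTRF against a standard curve, scaled between buffer alone (0%) and top control ligand concentration (100%), four-parameter fit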;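 as to Relative cAMP EC50, hGLP-1R: intracellular cAMP rise after 30 min at 37 °C read by HTRF, normalized between buffer only (0%) and maximal control ligand (100%), four-parameter variable-slope fit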;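 as to Relative cAMP EC50, hGcgR: intracellular cAMP rise after 30 min at 37 °C, read by HTRF against a cAMP standard curve, scaled from buffer only (0%) to maximal control ligand response (100%)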
hGLP-1R [4] = molecular target: T2, hGLP-1R; assay: as above; conditions: read-out: Relative cAMP EC50, hGLP-1R
hGcgR = hGcgR (Homo sapiens, UniProt P47871); assay: as above; conditions: read-out: Relative cAMP EC50, hGcgR;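 also: intracellular cAMP rise after 30 min at 37 °C, read by HTRF against a cAMP standard curve, scaled from buffer only (0%) to maximal control ligand response (100%)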
Chain of hGcgR (P47871 26-477): as above

[5] = HEK-293 clonal cell line, 1% HSA, geometric mean of relative EC50
[6] = in the presence of 0.1% casein (no HSA), geometric mean of relative EC50
[7] = in the presence of 0.1% casein (no HSA), geometric mean

| Substance | EC50 (hGIPR [1]) [nM] | EC50 (hGLP-1R [2]) [nM] | EC50 (human GcgR) [nM] | EC50 (hGIPR [3]) [nM] | EC50 (hGLP-1R [4]) [nM] | EC50 (hGcgR) [nM] | also measured |
| --- | --- | --- | --- | --- | --- | --- | --- |
| H-Y[Aib]QGT[αMePhe(2-F)]TSDYSI[αMeL]LDKK([AEEA-γGlu-C18 diacid])AQ[Aib]AFIEYLLETGPSSGAPPPSEG-NH2 [Example 417] |  |  |  |  |  |  | EC50 (hGIPR [1]; [5]): 4.46 nM; EC50 (hGLP-1R [2]; [5]): 67 nM; EC50 (human GcgR; [5]): 386 nM; EC50 (hGIPR [3]; [6]): 0.0144 nM; EC50 (hGLP-1R [4]; [6]): 0.328 nM; EC50 (hGcgR; [6]): 2.83 nM |
| H-Y[Aib]QGT[αMePhe(2-F)]TSDYSI[αMeL]LD[Orn]K([AEEA-γGlu-C18 diacid])AQ[Aib]AFI[dE]YLLEGGPSSGAPPPSEG-NH2 [Example 404] | 2.03 | 32.2 | 735 | 0.0102 | 0.217 | 4.1 |  |
| H-Y[Aib]QGT[αMePhe(2-F)]TSDYSKLLDEIAQK([AEEA-γGlu-C20 diacid])AFIEYLLEGGPSSGEPPPSEG-NH2 [Example 303] | 44.7 | 257 | 9950 |  |  |  | EC50 (hGIPR [3]; [7]): 0.116 nM; EC50 (hGLP-1R [4]; [7]): 1.13 nM; EC50 (hGcgR; [7]): 6.1 nM |
| H-Y[Aib]QGT[αMePhe(2-F)]TSDYSKLLDKIAQK([AEEA-γGlu-C18 diacid])AFIEYLIEGGPSSGEPPPSEG-NH2 [Example 330] | 7.33 | 91.8 | 398 |  |  |  | EC50 (hGIPR [3]; [7]): 0.0783 nM; EC50 (hGLP-1R [4]; [7]): 0.63 nM; EC50 (hGcgR; [7]): 3.91 nM |
| H-Y[Aib]QGT[αMePhe(2-F)]TSDYSKLLDKIAQK([AEEA-γGlu-C20 diacid])AFIEYLIEGGPSSGAPPPEGE-NH2 [Example 357] | 42.9 | 248 | 1810 |  |  |  | EC50 (hGIPR [3]; [7]): 0.077 nM; EC50 (hGLP-1R [4]; [7]): 0.625 nM; EC50 (hGcgR; [7]): 6.21 nM |
| H-Y[Aib]QGT[αMePhe(2-F)]TSDYSKLLDKIAQK([AEEA-γGlu-C20 diacid])AFIEYLIEGGPSSGAPPPSGE-NH2 [Example 356] | 19.2 | 206 | 2680 |  |  |  | EC50 (hGIPR [3]; [7]): 0.0613 nM; EC50 (hGLP-1R [4]; [7]): 0.599 nM; EC50 (hGcgR; [7]): 4.76 nM |
| H-Y[Aib]QGT[αMePhe(2-F)]TSDYSKLLDKIAQK([AEEA-γGlu-C20 diacid])[Orn]FIEWLIEGGPSSGEPPPSEG-NH2 [Example 310] | 15 | 177 | 4000 |  |  |  | EC50 (hGIPR [3]; [7]): 0.0939 nM; EC50 (hGLP-1R [4]; [7]): 0.586 nM; EC50 (hGcgR; [7]): 3.52 nM |
| H-Y[Aib]QGT[αMePhe(2-F)]TSDYSK[αMeL]LDKK([AEEA-γGlu-C18 diacid])AQ[Aib]QFIEYLEEGGPSSGEPPPSEG-NH2 [Example 292] |  |  |  |  |  |  | EC50 (hGIPR [1]; HEK-293 clonal cells expressing hGIPR, in the presence of 1% HSA, geometric mean of relative EC50): 92.7 nM; EC50 (hGLP-1R [2]; HEK-293 clonal cells expressing hGLP-1R, in the presence of 1% HSA, geometric mean of relative EC50): 129 nM; EC50 (human GcgR; HEK-293 clonal cells expressing hGcgR, in the presence of 1% HSA, geometric mean of relative EC50): 583 nM; EC50 (hGIPR [3]; [7]): 1.02 nM; EC50 (hGLP-1R [4]; [7]): 1.03 nM; EC50 (hGcgR; [7]): 1.84 nM |
| H-Y[Aib]QGT[αMePhe(2-F)]TSDY[αMeS]I[αMeL]LD[Orn]K([AEEA-γGlu-C18 diacid])AQ[Aib][Orn]FI[dE][αMeY]LEEGGPSSGEPPPEEG-NH2 [Example 403] | 36.9 | 70 | 527 | 0.0827 | 0.396 | 1.59 |  |
| H-Y[Aib]QGT[αMePhe(2-F)]TSD[4Pal]SILLDKK([AEEA-γGlu-C18 diacid])AQ[Aib]AFIEYLEEGGPSSGAPPPSGTGE-NH2 [Example 662] | 4.69 | 84.5 | 561 | 0.0704 | 0.946 | 4.81 |  |
| H-Y[Aib]QGT[αMePhe(2-F)]TSD[4Pal]SILLDKK([AEEA-γGlu-C18 diacid])AQ[Aib]AFIEYL[Aad]EGGPSSGAPPPSGTGE-NH2 [Example 663] | 10.2 | 79 | 226 | 0.0893 | 1.29 | 1.95 |  |
| H-Y[Aib]QGT[αMePhe(2-F)]TSD[4Pal]SILLDKK([AEEA-γGlu-C18 diacid])AQ[Aib]AFIE[αMeY]LEEGGPSSGAPPPSGTGE-NH2 [Example 669] | 1.41 | 27.3 | 173 | 0.0145 | 0.27 | 1.76 |  |
| H-Y[Aib]QGT[αMePhe(2-F)]TSD[4Pal]SILLDKK([γGlu-γGlu-C18 diacid])AQ[Aib]AFIEWLEEGGPSSGAPPPSGTE-NH2 [Example 549] | 3.67 | 76.2 | 655 | 0.0255 | 0.395 | 3.41 |  |
| H-Y[Aib]QGT[αMePhe(2-F)]TSD[4Pal]SILLDKK([γGlu-γGlu-C18 diacid])AQ[Aib]AFIEWLQEGGPSSGEPPPSGTEE-NH2 [Example 579] | 3.79 | 67.3 | 679 | 0.0171 | 0.252 | 2.36 |  |
| H-Y[Aib]QGT[αMePhe(2-F)]TSD[4Pal]SILLDKK([γGlu-γGlu-C18 diacid])AQ[Aib]AFIEYLEEGGPSSGAPPPEGTE-NH2 [Example 659] | 5.75 | 81.5 | 735 | 0.0673 | 1.31 | 5.89 |  |
| H-Y[Aib]QGT[αMePhe(2-F)]TSD[4Pal]SILLDKK([γGlu-γGlu-C18 diacid])AQ[Aib]AFIEYLEEGGPSSGAPPPSGAGE-NH2 [Example 620] | 5.96 | 90.7 | 665 | 0.0706 | 0.981 | 8.26 |  |
| H-Y[Aib]QGT[αMePhe(2-F)]TSD[4Pal]SILLDKK([γGlu-γGlu-C18 diacid])AQ[Aib]AFIEYLEEGGPSSGAPPPSGEEE-NH2 [Example 611] | 7.35 | 146 | 627 | 0.126 | 1.63 | 6.8 |  |
| H-Y[Aib]QGT[αMePhe(2-F)]TSD[4Pal]SILLDKK([γGlu-γGlu-C18 diacid])AQ[Aib]AFIEYLEEGGPSSGAPPPSGEGE-NH2 [Example 621] | 7.31 | 111 | 901 | 0.0661 | 1.28 | 6.81 |  |
| H-Y[Aib]QGT[αMePhe(2-F)]TSD[4Pal]SILLDKK([γGlu-γGlu-C18 diacid])AQ[Aib]AFIEYLEEGGPSSGAPPPSGGEE-NH2 [Example 612] | 7.58 | 126 | 640 | 0.087 | 1.21 | 7.13 |  |
| H-Y[Aib]QGT[αMePhe(2-F)]TSD[4Pal]SILLDKK([γGlu-γGlu-C18 diacid])AQ[Aib]AFIEYLEEGGPSSGAPPPSGGGE-NH2 [Example 619] | 6.78 | 94 | 819 | 0.0685 | 0.992 | 6.34 |  |
| H-Y[Aib]QGT[αMePhe(2-F)]TSD[4Pal]SILLDKK([γGlu-γGlu-C18 diacid])AQ[Aib]AFIEYLEEGGPSSGAPPPSGSEE-NH2 [Example 610] | 7.02 | 130 | 536 | 0.133 | 1.66 | 5.75 |  |
| H-Y[Aib]QGT[αMePhe(2-F)]TSD[4Pal]SILLDKK([γGlu-γGlu-C18 diacid])AQ[Aib]AFIEYLEEGGPSSGAPPPSGSGE-NH2 [Example 618] | 4.63 | 88.9 | 691 | 0.0418 | 1.53 | 5.57 |  |
| H-Y[Aib]QGT[αMePhe(2-F)]TSD[4Pal]SILLDKK([γGlu-γGlu-C18 diacid])AQ[Aib]AFIEYLEEGGPSSGAPPPSGTE-NH2 [Example 509] | 5.01 | 69.2 | 617 | 0.0557 | 0.65 | 4.66 |  |
| H-Y[Aib]QGT[αMePhe(2-F)]TSD[4Pal]SILLDKK([γGlu-γGlu-C18 diacid])AQ[Aib]AFIEYLEEGGPSSGAPPPSGTEE-NH2 [Example 609] | 6.19 | 121 | 647 | 0.0784 | 1.07 | 6.46 |  |
